The nature of data set [1]: Ex vivo skin penetration, Franz diffusion chamber, mouse skin. It counts as in vitro ADME. Particulars: fluorescein-labelled compounds, 10^−3 M, up to 3 hours. The source says: (§1) The penetration of the relevant compounds into mouse, pig and human skin was investigated using a Franz diffusion chamber system; this approach ensured a sealed system which prevented any leakage between the upper donor compartment and the lower receptor compartment. Circular full thickness skin samples (6 mm diameter) which had been cut with a punch biopsy blade were mounted into the diffusion chamber, with the stratum corneum facing upwards so that it was exposed to donor compartment, and with the receptor compartment filled with PBS. The compound under investigation was applied to the donor compartment so that it lay on the outer skin surface, and the chamber incubated at room temperature or at 37° C. for up to 3 hours. At the end of this incubation period, the remaining solution was removed from the upper compartment, and the skin washed three times with PBS. The skin was then bisected and half of it was snap frozen in liquid nitrogen for cryosectioning whereas the other half was fixed in 4% paraformaldehyde for 3 hours prior to paraffin blocking for cutting tissue sections. The skin sections were mounted on glass and visualised under fluorescent microscopy.
(§2) Penetration of αMSH into skin was examined using an ex-vivo mouse, pig and human skin model. […]

Data set [2] is described as follows: Ex vivo skin penetration, Franz diffusion chamber, human skin. In kind it is in vitro ADME. The conditions noted are these: fluorescein-labelled compounds, 10^−3 M, up to 3 hours.
Excerpt: as §1, §2

Data set [3] in a line: Ex vivo skin penetration, Franz diffusion chamber, pig skin. In kind it is in vitro ADME. The conditions noted are these: fluorescein-labelled compounds, 10^−3 M, up to 3 hours.
Excerpt: as §1, §2

Data set [4] deals with S91 Cloudman murine melanoma cells. The experiment in a line: Pigmentation assay (melanin synthesis). It counts as cell-based. The conditions noted are these: 5 days culture, 10^−8 M and 10^−6 M. Here is the method:
(§3) S91 Cloudman murine melanoma cells were cultured for 5 days in the presence or absence of αMSH compounds. All experiments were carried out in triplicate wells on three separate occasions. Following culture, cells were washed twice with PBS and then dissociated with cell dissociation solution (Sigma, UK). An aliquot of cells were counted using a haemocytometer, and the remaining cells pelleted by centrifugation prior to lysis of the pellet with 200 μl of 1M NaOH. Melanin concentrations were determined against a standard synthetic melanin dose range using a spectrophometric plate reader (emission 450-492 nm).

Another data set has as its system B16F10 cells. In words: Transport into B16F10 cells, fluorescence and confocal microscopy. The conditions noted are these: TyrPNA-PPL-fluo at 3×10^−5 M and at 10^−4 M. It counts as cell-based, murine. Here is the method: Experiments to investigate the transport of each compound into cells in culture were performed at 3 hours and 24 hours. Cells were seeded (at 1×10^5 cells per well for 3 hours treatment or 5×10^4 cells per well for 24 hours treatment) on 1% (w/v) poly-L-lysine coated glass coverslips in 12 well plates and incubated overnight at 5% CO2 and 37° C.; poly-L-lysine coating of glass coverslips was employed to prevent the fluo-labelled PPL compounds adhering to the glass and causing background fluorescence. Cells were then washed with PBS, and incubated at 5% CO2 and 37° C. with the compound in the medium for 3 hours or 24 hours. The medium was subsequently removed and the cells washed twice with PBS, prior to fixation with 4% paraformaldehyde for 7 minutes, and then fixation was stopped with 50 mM ammonium chloride for 10 minutes. Cells were subsequently washed twice with PBS, and coverslips were mounted (with the cells facing downwards) onto a glass slide with vectashield, and the edges sealed with clear nail varnish to prevent drying. Fluorescence was detected by fluorescence microscopy and/or confocal microscopy. […]
Fluorescently-tagged compounds were used as noted above and intracellular fluorescence recorded as a measure of penetration.

Data set [5] has as its system B16F10 murine melanoma cells. The experiment in a line: Pigmentation assay in alphaMSH-stimulated B16F10 cells. It counts as cell-based. Particulars: B16F10, 48 hours, αMSH 10^−10 M, compound 10^−5 M. As to the method: as §3
B16F10 murine melanoma cells were cultured for 48 hours in the presence or absence of αMSH (10^−10 M) with or without TyrPNA or TyrASO and separately with or without TyrPNA-PPL or TyrASO-PPL. Pigmentation was assessed as described above.

Take Fluo-Ahx-SYSMEHFRWGKPV-NH2 [Fluo-MSH]: in data set [1], the “penetration into mouse skin ex vivo” value is on record as “did not penetrate into skin (except on a single occasion in mouse skin)”. For the same substance, the “penetration into human skin ex vivo” value in data set [2] is on record as “did not penetrate into skin”. Besides, in data set [3], the “penetration into pig skin ex vivo” value is listed as “did not penetrate into skin”. In addition, the “melanin synthesis by melanoma cells, potency compared with αMSH” value in data set [4] was “stimulated melanin synthesis by melanoma cells with similar potency to αMSH”.
On to “TyrPNA-fluo: fluorescein-labelled TyrPNA, FIG. 8 (GAACATTTTCTCCTT; all peptide nucleic acid (PNA); further chemistry not fully specified)”, for which the “penetration into human skin ex vivo” value in data set [2] was “did not penetrate into skin”. Also, the “penetration into B16F10 cells (intracellular fluorescence)” value in the data set on B16F10 cells is “did not penetrate into B16F10 cells”.
As to “TyrPNA: 15 mer antisense peptide nucleic acid (GAA CAT TTT CTC CTT; SEQ. ID no. 1) targeting murine tyrosinase, modified as in FIG. 7 (antisense GAACATTTTCTCCTT; all peptide nucleic acid (PNA); further chemistry not fully specified) [15 mer antisense peptide nucleic acid (GAA CAT TTT CTC CTT; ID no]”, the “darkening of the cell pellet induced by αMSH” value in data set [5] was “did not prevent the increased production of melanin”.
